The test system of assay [1] is conscious spontaneously hypertensive rats (SHRs). Nature of the assay: Assay for antihypertensive activity (in vivo). Further details: species or system rat. The conditions noted are these: for BP lowering compared to Compound A: SHR, same dose (10 mg/kg) or inferior dose (3 mg/kg). As to the method:
The ability of the compounds of the invention to decrease blood pressure was evaluated in conscious spontaneously hypertensive rats (SHRs). SHRs (250-300 g) received a single oral dose of tested compounds. Systolic blood pressure (SBP) and heart rate were monitored by telemetry for 24 hours after dosing. SBP was evaluated before (baseline) and at different time points (i.e. 2-6, 12, 21-hours) following treatment by oral administration of the compounds. The data were processed both as the absolute value or as a delta between the absolute value and its own baseline.
The Dataquest IV telemetry system (Data Sciences International) was used for measurement of systolic pressure, diastolic pressure, mean arterial pressure, heart rate, and motor activity. The monitoring system consists of a transmitter (radio frequency transducer model TA11PA), receiver panel, consolidation matrix, and personal computer with accompanying software. Before the device was implanted, calibrations were verified to be accurate within ±3 mmHg. Rats were anesthetized with ketamine/xylazine/acepromazine, and the flexible catheter of the transmitter was surgically secured in the abdominal aorta just below the renal arteries. The transmitter was sutured subcutaneously. Rats were housed in individual cages after the operation. Each cage was placed over the receiver panel that was connected to the personal computer for data acquisition. The rats were unrestrained and free to move within their cages. Hemodynamic data were sampled every 2 minutes for 10 seconds.

Assay [2] deals with isolated rabbit thoracic aorta preparations. In words: Assay on vascular tone (vessel relaxation assay). Type of assay: cell-based. As to conditions: Oryctolagus cuniculus; aortic rings precontracted with noradrenaline 1 μM, functional endothelium. The protocol:
The ability of the compounds of the invention to induce vasorelaxation in comparison to native angiotensin II receptor blockers (ARBs) was tested in vitro in isolated rabbit thoracic aorta preparations (Wanstall J. C. et al., Br. J. Pharmacol., 134:463-472, 2001). Male New Zealand rabbits were anaesthetized with thiopental-Na (50 mg/kg, iv), sacrificed by exsanguinations and then the thorax was opened and the aorta dissected. Aortic ring preparations (4 mm in length) were set up in physiological salt solution (PSS) at 37° C. in small organ chambers (5 ml). The composition of PSS was (mM): NaCl 130, NaHCO3 14.9, KH2PO4 1.2, MgSO4 1.2, HEPES 10, CaCl2, ascorbic acid […] and glucose 1.1 (95% O2/5% CO2; pH 7.4). Each ring was mounted under 2 g passive tension. Isometric tension was recorded with a Grass transducer (Grass FT03) attached to a BIOPAC MP150 System. Preparations were allowed to equilibrate for 1 h, and then contracted submaximally with noradrenaline (NA, 1 μM) and, when the contraction was stable, acetylcholine (ACh, 10 μM) was added. A relaxant response to ACh indicated the presence of a functional endothelium. […] When a stable precontraction was reached, a cumulative concentration-response curve to either of the vasorelaxant agents was obtained in the presence of a functional endothelium. Each arterial ring was exposed to only one combination of inhibitor and vasorelaxant. Moreover, the effect of the soluble guanylyl cyclase inhibitor ODQ (1-H-(1,2,4)-oxadiazol(4,3-a)quinoxalin-1-one) on vasorelaxation elicited by the compounds was examined preincubating the aortic rings with ODQ (10 μM) for 20 min.
Responses to relaxing agents are expressed as a percentage of residual contraction and plotted against concentration of test compound. EC50 values (where EC50 is the concentration producing 50% of the maximum relaxation to the test compound) were interpolated from these plots. During the experimental period, the plateau obtained with NA was stable without significant spontaneous loss of contraction in the aortic rings.
Furthermore, in experiments performed in the presence of ODQ (10 μM), the vasorelaxant responses to tested compounds were inhibited.

Assay [3] deals with Reactive Nitrogen Species (RNS). In words: Assay for Reactive Nitrogen Species (RNS) (DAN assay). In kind it is in vivo, rat. More on the design: RNS levels: unit not given here. As to conditions: for RNS levels: EDTA-treated rat plasma. From the text: RNS were detected as S-nitrosothiols (RNSOs) in EDTA-treated rat plasma using an HPLC fluorescent assay based on the method of Kostka and Park (Methods Enzymol. 1999, 301, 227-235). The method is based on the detection of fluorescent 2,3-naphthotriazole (NAT) formed in the reaction between acidified 2,3-diaminonaphthalene (DAN) and the nitrosonium moiety of RSNOs released by HgCl2-mediated breakdown of the S—NO bond. The reaction mixture was chromatographed by reversed phase HPLC, and the fluorescent signal of the resolved NAT peak was quantified.
Plasma (20 μL) was first diluted 1:1 in H2O (20 μL) in a black polypropylene untreated microtiter plate. DAN reagent (100 μL per well, 100 μM DAN in 0.1 N HCl, 4 mM HgCl2) was added, and the plate was immediately sealed with an opaque plate mat, vortexed, and incubated in the dark for 10 min. Plates were centrifuged (2000×g, 5 min) and chilled to 4° C. before HPLC analysis. HPLC was carried out on an Agilent 1200 system using a chilled autosampler (4° C.). Samples were chromatographed on a C8 column (Zorbax Eclipse XDB-C8, 4.6×150 mm, 5 μm) with isocratic elution using a mobile phase of 67% MeOH, 0.1% NH4OAc and a flow rate of 2 mL/min. NAT fluorescence was monitored at 450 nm using an excitation wavelength of 360 nm. Calibration curves were prepared using NaNO2 in control plasma. Typical range of quantitation was 0.1 μM to 30 μM NO2.

Setting [4] is: 10 mpk single oral dose, 21-24 h.
[5] abbreviates: 3 mpk single oral dose, 21-24 h.

In the case of `CCCCc1nc(Cl)c(C(=O)OC(C)OC(=O)OCC[C@@H](C)O[N+](=O)[O-])n1Cc1ccc(-c2ccccc2-c2nn[nH]n2)cc1` (stereo partly drawn) [Example 6, 1-[({[(3R)-3-(nitrooxy)butyl]oxy}carbonyl)oxy]ethyl 2-butyl-4-chloro-1-{[2′-(1H-tetrazol-5-yl)biphenyl-4-yl]methyl}-1H-imidazole-5-carboxylate], the “Δ SBP in SHR” value was −16 mmHg in assay [1] (10 mpk single oral dose, 2-6 h); −17 mmHg in assay [1] (setting [4]); −21 mmHg in assay [1] (10 mpk single oral dose, 12 h). Also, the “BP lowering compared to Compound A” value in assay [1] was “extended peak effect and duration of action”. In addition, the EC50 in assay [2] was found to be 23 µM.
On to `CCCCc1nc(Cl)c(C(=O)OC(C)OC(=O)OCCC(C)O[N+](=O)[O-])n1Cc1ccc(-c2ccccc2-c2nn[nH]n2)cc1` (centres unmarked) [Example 5, 1-[({[3-(nitrooxy)butyl]oxy}carbonyl)oxy]ethyl 2-butyl-4-chloro-1-{[2′-(1H-tetrazol-5-yl)biphenyl-4-yl]methyl}-1H-imidazole-5-carboxylate], for which, in assay [2], the EC50 came out at 22 µM.
In the case of `CCCCc1nc(Cl)c(COC(=O)C23CC4CC(CC(O[N+](=O)[O-])(C4)C2)C3)n1Cc1ccc(-c2ccccc2-c2nnn[nH]2)cc1` [Example 10, (2-butyl-4-chloro-1-{[2′-(1H-tetrazol-5-yl)biphenyl-4-yl]methyl}-1H-imidazol-5-yl)methyl 3-(nitrooxy)adamantane-1-carboxylate], the EC50 in assay [2] is 5.3 µM.
In the case of `CCCCc1nc(Cl)c(C(=O)OC(C)OC(=O)OCCCCC(C)O[N+](=O)[O-])n1Cc1ccc(-c2ccccc2-c2nn[nH]n2)cc1` (centres unmarked) [Example 4, 1-[({[5-(nitrooxy)hexyl]oxy}carbonyl)oxy]ethyl 2-butyl-4-chloro-1-{[2′-(1H-tetrazol-5-yl)biphenyl-4-yl]methyl}-1H-imidazole-5-carboxylate], the RNS levels in assay [3] (time 0 h) turned out to be 0.9; in assay [3] (time 1 h), 6.9; in assay [3] (time 3 h) it was 6.9; in assay [3] (time 6 h), 2.4; in assay [3] (time 24 h) it was 1.6. Moreover, the “RNS levels compared to Compound A” value in assay [3] (rat plasma) is “improved RNS levels”. Also, the “Δ SBP in SHR” value in assay [1] (10 mpk single oral dose, 2-6 h) is listed as −10 mmHg; in assay [1] (setting [4]), −30 mmHg; in assay [1] (10 mpk single oral dose, 12 h), −30 mmHg. Further, the “BP lowering compared to Compound A” value in assay [1] was “extended peak effect and duration of action”. The EC50 in assay [2] is 27 µM.
`CCCCc1nc(Cl)c(C(=O)OC(C)OC(=O)OCC[C@H](C)O[N+](=O)[O-])n1Cc1ccc(-c2ccccc2-c2nn[nH]n2)cc1` (stereo partly drawn) [Example 7, 1-[({[(3S)-3-(nitrooxy)butyl]oxy}carbonyl)oxy]ethyl 2-butyl-4-chloro-1-{[2′-(1H-tetrazol-5-yl)biphenyl-4-yl]methyl}-1H-imidazole-5-carboxylate]: the EC50 in assay [2] came out at 26 µM.
With `CCCCc1nc(Cl)c(C(=O)OC(C)OC(=O)CCCC(C)O[N+](=O)[O-])n1Cc1ccc(-c2ccccc2-c2nn[nH]n2)cc1` (centres unmarked) [Example 8], the “Δ SBP in SHR” value in assay [1] (10 mpk single oral dose, 2-6 h) is given as −31 mmHg; in assay [1] (setting [4]), −28 mmHg; in assay [1] (10 mpk single oral dose, 12 h), −29 mmHg. Further, in assay [1], the “BP lowering compared to Compound A” value is “extended peak effect and duration of action”. Also, the EC50 in assay [2] amounted to 40 µM.
In the case of `CCCCc1nc(Cl)c(C(=O)OCCOCCO[N+](=O)[O-])n1Cc1ccc(-c2ccccc2-c2nn[nH]n2)cc1` [Compound A, reference compound], the RNS levels was 0.4 in assay [3] (time 0 h); 2.8 in assay [3] (time 1 h); 1.4 in assay [3] (time 3 h); 0.9 in assay [3] (time 6 h); 0 in assay [3] (time 24 h). The “Δ SBP in SHR” value in assay [1] (10 mpk single oral dose, 2-6 h) was −15 mmHg; in assay [1] (setting [4]), −8 mmHg; in assay [1] (10 mpk single oral dose, 12 h), −12 mmHg.
As to `CCOc1nc2cccc(C(=O)OC(C)(C)OC(=O)OCCCCC(C)O[N+](=O)[O-])c2n1Cc1ccc(-c2ccccc2-c2nnn[nH]2)cc1` (centres unmarked) [Example 2], the “Δ SBP in SHR” value is on record as −30 mmHg in assay [1] (3 mpk single oral dose, 2-6 h); −36 mmHg in assay [1] (setting [5]); −34 mmHg in assay [1] (3 mpk single oral dose, 12 h). The “BP lowering compared to Compound A” value in assay [1] is “extended peak effect and duration of action”. Also, the EC50 in assay [2] worked out at 31 µM.
For the compound `CCOc1nc2cccc(C(=O)OC(C)OC(=O)CCCC(C)O[N+](=O)[O-])c2n1Cc1ccc(-c2ccccc2-c2nn[nH]n2)cc1` (centres unmarked) [Example 9], the “Δ SBP in SHR” value in assay [1] (3 mpk single oral dose, 2-6 h) is reported as −43 mmHg; in assay [1] (setting [5]), −50 mmHg; in assay [1] (3 mpk single oral dose, 12 h) it was −49 mmHg. For the same compound, in assay [1], the “BP lowering compared to Compound A” value is “extended peak effect and duration of action”. Further, the EC50 in assay [2] came to 43 µM.
Turning to `CCCCc1nc(Cl)c(C(=O)OC(C)OC(=O)OCCCC[C@@H](C)O[N+](=O)[O-])n1Cc1ccc(-c2ccccc2-c2nnn[nH]2)cc1` (stereo partly drawn) [Example 1, 1-[({[(R)-5-(nitrooxy)hexyl]oxy}carbonyl)oxy]ethyl 2-butyl-4-chloro-1-{[2′-(1H-tetrazol-5-yl)biphenyl-4-yl]methyl}-1H-imidazole-5-carboxylate], the EC50 in assay [2] was found to be 22 µM.
Still for that read-out and setting: the result for `CCCCc1nc(Cl)c(C(=O)OC(C)OC(=O)OCCCC[C@H](C)O[N+](=O)[O-])n1Cc1ccc(-c2ccccc2-c2nn[nH]n2)cc1` (stereo partly drawn) [Example 3, 1-[({[(5S)-5-(nitrooxy)hexyl]oxy}carbonyl)oxy]ethyl 2-butyl-4-chloro-1-{[2′-(1H-tetrazol-5-yl)biphenyl-4-yl]methyl}-1H-imidazole-5-carboxylate] reads 39 µM.

The values are drawn from patent publication US20100311800A1, “ANGIOTENSIN II RECEPTOR ANTAGONISTS” (priority 2008, published 2010).
